From US20100080843A1, “Natural and synthetic sulfur and selenium analogs and polymer conjugated forms thereof for the modulation of angiogenesis” (The Research Foundation of the State University Of New York …, priority 2005, published 2010)
Values joined by “and” are separate entries in the source; they are usually repeats but may differ in a detail not shown here. Identical values can stand only once.

tested on: FGF2-induced angiogenesis in chick chorioalloantoic membranes; assay: Neovascularization in the Chick Chorioalloantoic Membrane (CAM), FGF2-stimulated CAM Model; type: in vivo; conditions: FGF2 (1.0 ug/ml) + analog, CAM
Description: In vivo neovascularization was examined by the method previously described by Auerbach et al. (Auerbach et al., J. Dev. Biol., 41:391-394 (1974), which is hereby incorporated by reference in its entirety). Ten-day old embryos were purchased from Spafas, Inc. (Preston, Conn.) and were incubated at 37° C. with 55% relative humidity. In the dark with the help of a candling lamp, a small hole was punctured in the shell concealing the air sac with a hypodermic needle. A second hole was punctured, in the shell on the broadside of the egg directly over an avascular portion of the embryonic membrane, as observed during candling. A false air sac was created beneath the second hole by the application of negative pressure to the first hole, which caused the chorioallantoic membrane (CAM) to separate from the shell. A window, approximately 1.0 cm^2, was cut in the shell over the dropped CAM with the use of a small crafts grinding wheel (Dremel, Division of Emerson Electric Company Racine, Wis.), which allowed direct, access to the underlying CAM. Filter disks of #1 filter paper (Whatman International, United Kingdom) were soaked in 3 mg/mL cortisone acetate (Sigma, St. Louis, Mo.) in a solution of 95% ethanol and water and subsequently air dried under sterile conditions. FGF2 (Life Technologies, Gaithersburg, Md.) was used to grow vessels on the CAMs of 10 day old chick embryos. Sterile filter disks adsorbed with FGF2 dissolved in PBS at 1 μg/mL were placed on growing CAMs. Sterile filter disks adsorbed with FGF2 or sulfur- or selenium-containing compounds, and polymeric forms were dissolved in PBS at 1 μg/mL were placed on growing CAM. At 24 h, test compounds or control vehicle was added directly to CAM topically.
CAM tissue directly beneath FGF2-saturated filter disk was resected from embryos treated 48 hours prior with test compound or control. Tissues were washed three times with PBS. Sections were placed in a 35-mm petri dish (Nalge Nunc, Rochester, N.Y.) and examined under a SV6 stereomicroscope (Karl Zeiss, Thornwood, N.Y.) at 50× magnification. Digital images of CAM sections adjacent to filters were collected using a 3-CCD color video camera system (Toshiba America, New York, N.Y.) and analyzed using Image-Pro Plus software (Media Cybernetics, Silver Spring, Md.).
Statistical Analysis: Statistical analysis was performed by 1-way ANOVA comparing experimental with control samples.

Compound | Branch Points ± SEM
O=S1(=O)C=CC1 [Example 1] | 149 ± 8.9
O=S1(=O)CCCC1 [Example 2] | 141.0 ± 10.69
CCCCS(=O)(=O)CCCC [Example 3] | 150.88 ± 14.31
O=S1(=O)CC=CC1 [Example 4] | 131.57 ± 11.55
CS(=O)(=O)c1ccccc1 [Example 5] | 140 ± 5.2
CSCS(C)(=O)=O [Example 6] | 158.0 ± 7.08
CS(=O)(=O)C(Cl)(Cl)Cl [Example 9] | 135.83 ± 8.17
CS(=O)(=O)CS(C)(=O)=O [Example 12] | 144.83 ± 9.19
O=S1(=O)CC2(C1)CS(=O)(=O)C2 [Example 13] | 164 ± 5
O=[Se](=O)(c1ccccc1)c1ccccc1 [Example 14] | 143.5 ± 4.7
O=S(=O)(c1ccccc1)c1ccccc1 [Example 15] | 163 ± 15
CC[Se](=O)(=O)CC [Example 17] | 146 ± 8.5
C[Se](=O)c1ccccc1 (stereo not drawn) [Example 18] | 165 ± 5.7
CCS(=O)(=O)CC [Example 19] | 131 ± 17
O=C(O)C[Se](=O)(=O)CC(=O)O [Example 20] | 148.67 ± 11.02

same assay, conditions: FGF2 (1.0 ug/ml) + analog, CAM branch points (Table 3)

Compound | % inhibition ± SEM
CS(=O)(=O)c1ccccc1 [Example 5] | 37 ± 5.9%
O=S1(=O)CC2(C1)CS(=O)(=O)C2 [Example 13] | 24 ± 4.3%
CC[Se](=O)(=O)CC [Example 17] | 40 ± 7%
C[Se](=O)c1ccccc1 (stereo not drawn) [Example 18] | 23.8 ± 4.9%

same assay, conditions: FGF2 alone, 1.0 ug/ml, CAM

Compound | Branch Points ± SEM
FGF2: growth factor used to grow vessels on the CAMs; pro-angiogenic stimulus [reference compound] | 180.33 ± 8.58 and 193 ± 11 and 173 ± 7.5

same assay, conditions: Gallus gallus; FGF2 + analog, 10 uM (Table 4); read-out: % inhibition ± SEM Branch point in CAM

Compound | inhibition at 10 µM
O=S1(=O)C=CC1 [Example 1] | 48.9 ± 7%
O=S1(=O)CCCC1 [Example 2] | 55 ± 8.53%
CCCCS(=O)(=O)CCCC [Example 3] | 47.2 ± 11.4%
O=S1(=O)CC=CC1 [Example 4] | 62.6 ± 9.21%
CS(=O)(=O)c1ccccc1 [Example 5] | 37%
CSCS(C)(=O)=O [Example 6] | 25.6 ± 8.1%
CS(=O)(=O)C(Cl)(Cl)Cl [Example 9] | 51 ± 9.36%
CS(=O)(=O)CS(C)(=O)=O [Example 12] | 40.6 ± 10.5%
O=S1(=O)CC2(C1)CS(=O)(=O)C2 [Example 13] | 24.7 ± 4.3%
O=[Se](=O)(c1ccccc1)c1ccccc1 [Example 14] | 41.4 ± 4.5%
O=S(=O)(c1ccccc1)c1ccccc1 [Example 15] | 25 ± 13%
C[Se](=O)(=O)c1ccccc1 [Example 16] | 23.8 ± 4.9%
CC[Se](=O)(=O)CC [Example 17] | 39.9 ± 7.3%
C[Se](=O)c1ccccc1 (stereo not drawn) [Example 18] | 39%
CCS(=O)(=O)CC [Example 19] | 53 ± 15%
O=C(O)C[Se](=O)(=O)CC(=O)O [Example 20] | 36.3 ± 12.6%

tested on: endothelial cells; assay: Inhibition of Endothelial Cell Tube Formation (Matrigel, FGF2-stimulated); type: cell-based, Human; conditions: FGF2 + analog; all compounds tested at 3 μM; n = 3
Description: Differentiation by endothelial cells was examined using a method developed by Grant et al. (Grant et al., In Vitro Cell Dev. Biol., 27A:327-336 (1991), which is hereby incorporated by reference in its entirety). Matrigel® matrix, phenol-red free (commercially available from Becton Dickinson, Bedford, Mass.) was thawed overnight at 4° C. Using cold pipette tips, 3.0 mg/well of Matrigel® matrix was placed M a cold twenty-four-multi-well plate (Falcon). Matrigel® matrix was allowed to polymerize during incubation at 37° C. for 30 minutes.

Compound | Length(mm) ± SEM
O=S1(=O)C=CC1 [Example 1] | 20.64 ± 0.68 mm
O=S1(=O)CCCC1 [Example 2] | 24.03 ± 0.85 mm
CCCCS(=O)(=O)CCCC [Example 3] | 25.41 ± 1.1 mm
O=S1(=O)CC=CC1 [Example 4] | 25.25 ± 0.66 mm
CS(=O)(=O)c1ccccc1 [Example 5] | 28.81 ± 1.0 mm
CSCS(C)(=O)=O [Example 6] | 22.91 ± 1.70 mm
CS(=O)(=O)C(Cl)(Cl)Cl [Example 9] | 21.95 ± 3.1 mm
CS(=O)(=O)CS(C)(=O)=O [Example 12] | 31.47 ± 1.5 mm
O=S1(=O)CC2(C1)CS(=O)(=O)C2 [Example 13] | 34.61 ± 0.24 mm
O=[Se](=O)(c1ccccc1)c1ccccc1 [Example 14] | 31.91 ± 1.8 mm
O=S(=O)(c1ccccc1)c1ccccc1 [Example 15] | 23.43 ± 2.5 mm
C[Se](=O)(=O)c1ccccc1 [Example 16] | 28.78 ± 0.88 mm
CC[Se](=O)(=O)CC [Example 17] | 30.98 ± 2.43 mm
C[Se](=O)c1ccccc1 (stereo not drawn) [Example 18] | 28.22 ± 0.92 mm
CCS(=O)(=O)CC [Example 19] | 28.46 ± 25.7 mm
O=C(O)C[Se](=O)(=O)CC(=O)O [Example 20] | 25.11 ± 3.1 mm

same assay, conditions: FGF2 alone (stimulated control)

Compound | Length(mm) ± SEM
FGF2: growth factor used to grow vessels on the CAMs; pro-angiogenic stimulus [reference compound] | 43.82 ± 3.2 mm

same assay, conditions: Homo sapiens, Endothelial cell; FGF2 + analog; all compounds tested at 3 μM; n = 3; read-out: Man % Inhibition +/− SD

Compound | inhibition at 3 µM
O=S1(=O)C=CC1 [Example 1] | 77.9 ± 2.28%
O=S1(=O)CCCC1 [Example 2] | 66.5 ± 2.87%
CCCCS(=O)(=O)CCCC [Example 3] | 61.9 ± 3.57%
O=S1(=O)CC=CC1 [Example 4] | 62.5 ± 2.24%
CS(=O)(=O)c1ccccc1 [Example 5] | 50.5 ± 3.48%
CSCS(C)(=O)=O [Example 6] | 70.3 ± 5.71%
CS(=O)(=O)C(Cl)(Cl)Cl [Example 9] | 73.5 ± 10.5%
CS(=O)(=O)CS(C)(=O)=O [Example 12] | 41.5 ± 4.93%
O=S1(=O)CC2(C1)CS(=O)(=O)C2 [Example 13] | 31 ± 0.8%
O=[Se](=O)(c1ccccc1)c1ccccc1 [Example 14] | 40.1 ± 6.12%
O=S(=O)(c1ccccc1)c1ccccc1 [Example 15] | 65.6 ± 8.9%
C[Se](=O)(=O)c1ccccc1 [Example 16] | 46.5 ± 3.2%
CC[Se](=O)(=O)CC [Example 17] | 38.6 ± 8.7%
C[Se](=O)c1ccccc1 (stereo not drawn) [Example 18] | 48.5 ± 3.3%
CCS(=O)(=O)CC [Example 19] | 47.6 ± 9.2%
O=C(O)C[Se](=O)(=O)CC(=O)O [Example 20] | 62.9 ± 10.5%
